Details: Gas, Buoyancy - hydrostatic balance with magnetic suspension - one sinker

C=C(F)C(F)(F)F [2,3,3,3-tetrafluoro-1-propene]
Details	mass density [kg/m3]
252.64 K, 70 kPa	3.88
252.64 K, 110 kPa	6.265
252.64 K, 124 kPa	7.097
262.07 K, 81 kPa	4.341
262.08 K, 113 kPa	6.19
262.08 K, 136 kPa	7.456
262.08 K, 157 kPa	8.696
262.08 K, 169 kPa	9.424
270.18 K, 105 kPa	5.505
270.18 K, 132 kPa	6.952
270.18 K, 172 kPa	9.215
270.18 K, 232 kPa	12.71
270.19 K, 256 kPa	14.125
279.64 K, 75 kPa	3.732
279.65 K, 118 kPa	5.957
279.65 K, 168 kPa	8.6
279.65 K, 219 kPa	11.398
279.66 K, 261 kPa	13.822
279.66 K, 302 kPa	16.231
279.67 K, 352 kPa	19.153
289.17 K, 279 kPa	14.228
289.17 K, 433 kPa	23.141
289.18 K, 186 kPa	9.245
289.18 K, 223 kPa	11.205
289.18 K, 344 kPa	17.869
289.18 K, 502 kPa	27.513
289.19 K, 84 kPa	4.052
289.19 K, 143 kPa	7.017
298.63 K, 249 kPa	12.098
298.63 K, 312 kPa	15.415
298.63 K, 363 kPa	18.154
298.63 K, 419 kPa	21.272
298.63 K, 599 kPa	32.147
298.63 K, 647 kPa	35.336
298.64 K, 134 kPa	6.319
298.64 K, 204 kPa	9.779
308.12 K, 125 kPa	5.711
308.12 K, 242 kPa	11.284
308.13 K, 188 kPa	8.693
308.13 K, 282 kPa	13.311
308.13 K, 367 kPa	17.655
308.13 K, 460 kPa	22.624
308.14 K, 517 kPa	25.797
308.14 K, 551 kPa	27.714
308.14 K, 608 kPa	31.08
308.14 K, 741 kPa	39.419
317.63 K, 418 kPa	19.56
317.63 K, 514 kPa	24.547
317.63 K, 613 kPa	30.022
317.63 K, 892 kPa	46.934
317.64 K, 202 kPa	9.037
317.64 K, 351 kPa	16.204
317.66 K, 116 kPa	5.083
317.66 K, 166 kPa	7.365
327.25 K, 522 kPa	23.936
327.25 K, 597 kPa	27.809
327.25 K, 825 kPa	40.447
327.25 K, 1152 kPa	61.545
327.26 K, 299 kPa	13.167
327.26 K, 372 kPa	16.57
327.26 K, 463 kPa	20.996
327.27 K, 97 kPa	4.113
327.27 K, 153 kPa	6.549
327.27 K, 235 kPa	10.227
336.67 K, 110 kPa	4.549
336.67 K, 321 kPa	13.728
336.67 K, 424 kPa	18.45
336.67 K, 501 kPa	22.051
336.67 K, 618 kPa	27.852
336.67 K, 667 kPa	30.331
336.67 K, 693 kPa	31.586
336.67 K, 873 kPa	41.236
336.67 K, 1254 kPa	64.685
336.67 K, 1683 kPa	100.038
336.68 K, 237 kPa	10.013
345.74 K, 1557 kPa	81.658
345.74 K, 1910 kPa	112.152
345.75 K, 517 kPa	21.914
345.75 K, 739 kPa	32.609
345.75 K, 886 kPa	40.193
345.75 K, 1229 kPa	59.662
345.76 K, 145 kPa	5.863
345.76 K, 305 kPa	12.598

— the NIST ThermoML archive (doi:10.1021/acs.jced.7b00427)
